Assay results taken from patent US7300946B2, “N-(substituted arylmethyl)-4-(disubstituted methyl) piperidines and pyridines” (Bayer CropScience AG, priority 2002, dated 2007).

Test system: tobacco budworm (Heliothis virescens [Fabricius])
Assay: surface-treated diet test against the tobacco budworm
Format: in vivo
Settings: tobacco budworm second instar larvae, 0.25 millimoles of candidate insecticide on the surface of the diet, five-day exposure; for Percent Mortality: compared to total number of insects infested; for Percent Growth Inhibition: inhibition of insect weight relative to untreated controls
Procedure, shortened: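 Wheat germ artificial diet surface-treated with 40 µL of 50 mM DMSO stock diluted 1:7 in 1:1 water/acetone (0.25 millimolar on diet), or sub-multiples for rate tests. One second-instar larva per well, 25° C, 60% RH, 5 days; percent weight inhibition vs DMSO controls and percent mortality.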

Compound | Percent Mortality (surface-treated diet) [%] | Percent Growth Inhibition (surface-treated diet) [%] | Percent Mortality [%] | Percent Growth Inhibition [%]
COc1ccc(NC(=O)OC(c2ccc(C(F)(F)F)cc2)C2CCN(Cc3ccc(Oc4ccccn4)cc3)CC2)cc1F (stereo not drawn) [Compound 700] | 100 | 100 | – | –
CCn1nnc(-c2ccc(CN3CCC(=C(c4ccccc4)c4ccc(Cl)cc4)CC3)cc2)n1 [Compound 76] | 0 | 91 | – | –
CC(C)OC(=O)Nc1ccc(CN2CCC(C(OC(=O)Nc3ccc(Cl)cc3)c3cc(Cl)cc(Cl)c3)CC2)cc1 (stereo not drawn) [Compound 508] | 100 | 100 | – | –
C#CCOC(=O)Nc1ccc(CN2CCC(=C(c3ccc(C(F)(F)F)cc3)c3ccc(C(F)(F)F)cc3)CC2)cc1 [Compound 802] | – | – | 100 | 100
Nc1ccc(CN2CCC(C(OC(=O)Nc3cc(F)cc(F)c3)c3ccc(C(F)(F)F)cc3)CC2)cc1 (stereo not drawn) [Compound 466] | 17 | 77 | – | –
C=CCOC(=O)Nc1ccc(CN2CCC(=C(c3ccc(C(F)(F)F)cc3)c3ccc(C(F)(F)F)cc3)CC2)cc1 [Compound 797] | – | – | 100 | 100
O=C(Nc1cc(F)cc(F)c1)OC(c1ccc(C(F)(F)F)cc1)C1CCN(Cc2ccc(Oc3ncccc3C(F)(F)F)cc2)CC1 (stereo not drawn) [Compound 689] | 100 | 100 | – | –
CCn1nnc(-c2ccc(CN3CCC(C(OC(=O)Nc4ccc(Oc5ccccc5)cc4)c4ccc(C(F)(F)F)cc4)CC3)cc2)n1 (stereo not drawn) [Compound 298] | 100 | 100 | – | –
O=C(Nc1ccc(Cl)nc1)OC(c1ccc(C(F)(F)F)cc1)C1CCN(Cc2ccc(Oc3ccccn3)cc2)CC1 (stereo not drawn) [Compound 445] | 100 | 100 | – | –
Fc1cc(F)cc(C(=C2CCN(Cc3ccc(Oc4ncccn4)cc3)CC2)c2ccc(C(F)(F)F)cc2)c1 [Compound 820] | – | – | 50 | 92
CCn1nnc(-c2ccc(CN3CCC(C(OC(=O)Nc4ccc(Cl)cc4)c4ccc(-c5ccccc5)cc4)CC3)cc2)n1 (stereo not drawn) [Compound 611] | 83 | 100 | – | –
CC(C)NC(=S)OC(c1ccc(C(F)(F)F)cc1)C1CCN(Cc2ccc(Oc3ccccn3)cc2)CC1 (stereo not drawn) [Compound 777] | – | – | 67 | 100
Cn1nnc(-c2ccc(CN3CCC(C(NCc4ccccc4Cl)c4ccc(OC(F)(F)F)cc4)CC3)cc2)n1 (stereo not drawn) [Compound 309] | 100 | 100 | – | –
Cn1nnc(-c2ccc(C[N+]3([O-])CCC(C(OC(=O)Nc4ccc(C(F)(F)F)cc4)c4ccc(OC(F)(F)F)cc4)CC3)cc2)n1 (stereo not drawn) [Compound 402] | 100 | 100 | – | –
Cc1ccc(NC(=O)NC(c2ccc(OC(F)(F)F)cc2)C2CCN(Cc3ccc(-c4nnn(C)n4)cc3)CC2)cc1 (stereo not drawn) [Compound 342] | 100 | 100 | – | –
CCn1nnc(-c2ccc(CN3CCC(C(OC(=O)Nc4ccc(Cl)c(Cl)c4)c4cccc(F)c4)CC3)cc2)n1 (stereo not drawn) [Compound 583] | 100 | 100 | – | –
Cn1nnc(-c2ccc(CN3CCC(C(NC(=O)c4ccccc4)c4ccc(OC(F)(F)F)cc4)CC3)cc2)n1 (stereo not drawn) [Compound 321] | 17 | 95 | – | –
Cn1nnc(-c2ccc(CN3CCC(C(NCc4ccc(Br)cc4)c4ccc(OC(F)(F)F)cc4)CC3)cc2)n1 (stereo not drawn) [Compound 312] | 100 | 100 | – | –
Clc1ccc(C(=C2CCN(Cc3ccc(Oc4ccccn4)cc3)CC2)c2ccc(Cl)cc2)cc1 [Compound 809] | – | – | 100 | 100
O=C(Nc1cccc(C(F)(F)F)c1)OC(c1ccc(Cl)c(Cl)c1)C1CCN(Cc2ccc(Oc3ccccn3)cc2)CC1 (stereo not drawn) [Compound 650] | 100 | 100 | – | –
COc1ccc(OC(=O)NC(c2ccc(OC(F)(F)F)cc2)C2CCN(Cc3ccc(-c4nnn(C)n4)cc3)CC2)cc1 (stereo not drawn) [Compound 356] | 100 | 100 | – | –

Compound | Percent Mortality (surface-treated diet) [%] | Percent Growth Inhibition (surface-treated diet) [%] | Percent Mortality [%] | Percent Growth Inhibition [%]
[O-][N+]1(Cc2ccc(OCC3CC3)cc2)CCC(=C(c2ccc(C(F)(F)F)cc2)c2ccc(C(F)(F)F)cc2)CC1 (stereo not drawn) [Compound 98] | 100 | 100 | – | –
CCn1nnc(-c2ccc(C[N+]3([O-])CCC(C(OC(=O)Nc4ccc(F)cc4)c4ccc(OC(F)(F)F)cc4)CC3)cc2)n1 (stereo not drawn) [Compound 401] | 100 | 100 | – | –
CCON=Cc1ccc(CN2CCC(C(OC(=O)Nc3ccccc3C(F)(F)F)c3ccc(C(F)(F)F)cc3)CC2)cc1 (stereo not drawn) [Compound 203] | 100 | 100 | – | –
CCn1nnc(-c2ccc(CN3CCC(=C(c4ccc5c(c4)OC(F)(F)O5)c4ccc5c(c4)OC(F)(F)O5)CC3)cc2)n1 [Compound 83] | 100 | 100 | – | –
CC(C)OC(=O)Nc1ccc(CN2CCC(C(OC(=O)Nc3cc(F)cc(F)c3)c3cc(Cl)cc(Cl)c3)CC2)cc1 (stereo not drawn) [Compound 510] | 100 | 100 | – | –
O=C(Nc1ccc(C(F)(F)F)cc1)OC(c1ccc(OC(F)(F)F)cc1)C1CCN(Cc2ccc(Oc3ccccn3)cc2)CC1 (stereo not drawn) [Compound 246] | 100 | 100 | – | –
CCON=Cc1ccc(CN2CCC(C(OC(=O)Nc3ccc(F)c(F)c3)c3ccc(OC(F)(F)F)cc3)CC2)cc1 (stereo not drawn) [Compound 195] | 100 | 100 | – | –
O=C(Nc1cccnc1Cl)OC(c1ccc(C(F)(F)F)cc1)C1CCN(Cc2ccc(Oc3ccccn3)cc2)CC1 (stereo not drawn) [Compound 447] | 100 | 100 | – | –
O=C(NC1CCCCC1)OC(c1ccc(C(F)(F)F)cc1)C1CCN(Cc2ccc(Oc3ccccn3)cc2)CC1 (stereo not drawn) [Compound 432] | 100 | 100 | – | –
CC(C)OC(=O)c1ccc(CN2CCC(=C(c3ccc(C(F)(F)F)cc3)c3ccc(C(F)(F)F)cc3)CC2)cc1 [Compound 51] | 0 | 26 | – | –
COc1nc(OC)nc(Oc2ccc(CN3CCC(C(OC(=O)Nc4cc(F)cc(F)c4)c4ccc(C(F)(F)F)cc4)CC3)cc2)n1 (stereo not drawn) [Compound 740] | – | – | 100 | 100
O=C(Nc1cc(F)cc(F)c1)OC(c1ccc(C(F)(F)F)cc1)C1CCN(Cc2ccc(-n3cccn3)cc2)CC1 (stereo not drawn) [Compound 556] | 100 | 100 | – | –
CCON=Cc1ccc(CN2CCC(C(OC(=O)Nc3ccc(Br)cc3)c3ccc(C(F)(F)F)cc3)CC2)cc1 (stereo not drawn) [Compound 183] | 100 | 100 | – | –
CCn1nnc(-c2ccc(CN3CCC(C(OC(=O)Nc4ccc(Cl)c(Cl)c4)c4cc(F)cc(F)c4)CC3)cc2)n1 (stereo not drawn) [Compound 591] | 100 | 100 | – | –
CC(=O)Nc1ccc(CN2CCC(C(OC(=O)Nc3ccc(Cl)cc3)c3ccc(C(F)(F)F)cc3)CC2)cc1 (stereo not drawn) [Compound 494] | 0 | 77 | – | –
CCn1nnc(-c2ccc(CN3CCC(C(OC(=O)Nc4ccc(C(F)(F)F)cc4)c4ccc(OC(F)(F)F)cc4)CC3)cc2)n1 (stereo not drawn) [Compound 291] | 100 | 95 | – | –
CC(C)(C)C(=O)Nc1ccc(CN2CCC(C(OC(=O)Nc3cc(F)cc(F)c3)c3ccc(C(F)(F)F)cc3)CC2)cc1 (stereo not drawn) [Compound 497] | 17 | 100 | – | –
Cn1nnc(-c2ccc(CN3CCC(C(NCc4cccc(Cl)c4)c4ccc(OC(F)(F)F)cc4)CC3)cc2)n1 (stereo not drawn) [Compound 310] | 100 | 100 | – | –
FC(F)(F)c1ccc(C(=C2CCN(Cc3ccc(Oc4ncccn4)cc3)CC2)c2cccc(Cl)c2)cc1 [Compound 815] | – | – | 100 | 100
O=C(Nc1ccc(Cl)cc1)OC(c1ccc(C(F)(F)F)cc1)C1CCN(Cc2ccc(Oc3ccccn3)cc2)CC1 (stereo not drawn) [Compound 665] | 0 | 100 | – | –
O=C(Nc1cc(F)cc(F)c1)OC(c1ccc(C(F)(F)F)cc1)C1CC[N+]([O-])(Cc2ccc(Oc3ccccc3)cc2)CC1 (stereo not drawn) [Compound 749] | – | – | 100 | 100
